# Experimental data from PubChem BioAssay (NCI).
#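 Dose response: 5 concentrations. Exposure: 48 h. Format: 96-well plates. Endpoint: linear interpolation; highest concentration if not reached. Definition used: TGI = concentration required for complete inhibition of growth.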
# Legend:
# Assay in all cases: DTP human tumour cell line panel, 48 h
# OVCAR-5 ovarian = test system: OVCAR-5 ovarian
# CCRF-CEM leukemia = test system: CCRF-CEM leukemia
# U251 CNS = test system: U251 CNS
# SNB-19 CNS = test system: SNB-19 CNS
# SK-MEL-2 melanoma = test system: SK-MEL-2 melanoma
# COLO 205 colon = test system: COLO 205 colon
# HT29 colon = test system: HT29 colon
# SK-OV-3 ovarian = test system: SK-OV-3 ovarian
# SF-268 CNS = test system: SF-268 CNS
# SK-MEL-5 melanoma = test system: SK-MEL-5 melanoma
# OVCAR-4 ovarian = test system: OVCAR-4 ovarian
# MOLT-4 leukemia = test system: MOLT-4 leukemia
# HCT-15 colon = test system: HCT-15 colon
# M19-MEL melanoma = test system: M19-MEL melanoma
# TK-10 renal = test system: TK-10 renal
# MDA-MB-231 breast = test system: MDA-MB-231 breast
# BT-549 breast = test system: BT-549 breast
# PC-3 prostate = test system: PC-3 prostate
# MDA-MB-435 = test system: MDA-MB-435
# NCI/ADR-RES ovarian = test system: NCI/ADR-RES ovarian
SMILES,TGI (OVCAR-5 ovarian),TGI (CCRF-CEM leukemia),TGI (U251 CNS),TGI (SNB-19 CNS),TGI (SK-MEL-2 melanoma),TGI (COLO 205 colon),TGI (HT29 colon),TGI (SK-OV-3 ovarian),TGI (SF-268 CNS),TGI (SK-MEL-5 melanoma),TGI (OVCAR-4 ovarian),TGI (MOLT-4 leukemia),TGI (HCT-15 colon),TGI (M19-MEL melanoma),TGI (TK-10 renal),TGI (MDA-MB-231 breast),TGI (BT-549 breast),TGI (PC-3 prostate),TGI (MDA-MB-435),TGI (NCI/ADR-RES ovarian)
CCC1CCc2c(c(=O)oc3c2cc(OC)c2cccc(OC)c23)C1 (stereo not drawn),> 100 µM,> 100 µM,> 100 µM,> 100 µM,> 100 µM,> 100 µM,> 100 µM,> 100 µM,> 100 µM,80.9 µM,> 100 µM,> 100 µM,> 100 µM,> 100 µM,> 100 µM,,,,,
O=C(N[C@@H](c1ccccc1)[C@@H](O)C(=O)OCc1ccc([N+](=O)[O-])cc1)c1ccccc1,> 100 µM,> 100 µM,> 100 µM,> 100 µM,> 100 µM,> 100 µM,> 100 µM,> 100 µM,> 100 µM,> 100 µM,> 100 µM,76 µM,> 100 µM,,> 100 µM,> 100 µM,> 100 µM,> 100 µM,> 100 µM,> 100 µM
CC(C(=O)OCc1ccccc1)(c1ccco1)N1C(=O)OC(c2ccccc2)C1c1ccccc1 (stereo not drawn),> 100 µM,> 100 µM,> 100 µM,> 100 µM,> 100 µM,> 100 µM,> 100 µM,> 100 µM,> 100 µM,> 100 µM,> 100 µM,> 100 µM,> 100 µM,,> 100 µM,> 100 µM,> 100 µM,> 100 µM,> 100 µM,> 100 µM
O=C(c1cccs1)N(C(=O)N1CCN(c2ccccc2)CC1)S(=O)(=O)c1ccccc1,55.7 µM,> 100 µM,33.3 µM,72.2 µM,36.3 µM,30.1 µM,> 100 µM,> 100 µM,80.6 µM,30.7 µM,> 100 µM,49.8 µM,75.4 µM,,> 100 µM,51.6 µM,84 µM,94.6 µM,70.6 µM,57.2 µM
O=c1oc2ccccc2cc1-c1cn2ccccc2n1,46.7 µM,> 22.5 µM,5.66 µM,12.7 µM,14.4 µM,> 100 µM,51.7 µM,15.6 µM,13.2 µM,20.1 µM,> 42.1 µM,> 80.8 µM,38.9 µM,,20.5 µM,18.5 µM,26.3 µM,12.8 µM,14.5 µM,11.9 µM
CCC(=O)O[C@H]1CC[C@H]2[C@@H]3CCC4=C/C(=N/OC(=O)c5cccc6c(=O)c7ccccc7[nH]c56)CC[C@]4(C)[C@H]3CC[C@]12C,> 100 µM,57.5 µM,> 100 µM,> 100 µM,75.5 µM,> 100 µM,> 100 µM,> 100 µM,> 100 µM,> 100 µM,> 100 µM,53.4 µM,61.9 µM,,> 100 µM,> 100 µM,> 100 µM,> 100 µM,99.6 µM,> 100 µM
O=C(Nc1nncs1)NS(=O)(=O)n1c(=S)sc2ccccc21,> 100 µM,75.7 µM,> 100 µM,> 100 µM,> 100 µM,> 100 µM,> 100 µM,> 100 µM,> 100 µM,> 100 µM,> 100 µM,> 100 µM,> 100 µM,,> 100 µM,> 100 µM,> 100 µM,> 100 µM,> 100 µM,> 100 µM
CC1=CCC(C)=Nc2nc3ccccc3n21,> 100 µM,> 100 µM,> 100 µM,> 100 µM,> 100 µM,> 100 µM,> 100 µM,> 100 µM,> 100 µM,> 100 µM,> 100 µM,> 100 µM,> 100 µM,,> 100 µM,> 100 µM,> 100 µM,> 100 µM,> 100 µM,> 100 µM
